pIC50: −log10 of the molar value. Values after ≈ are worked out from the molar mass of the structure shown.
Key:
[1] = tested on: Rattus norvegicus; experiment: Toxicity in rat non-anesthetized rat at 30 mg/kg, iv infusion administered 4 hrs for 4 consecutive days; assay type: organism-based; design: dose 30 mg/kg, route intravenous; conditions: in vivo
[2] = Volume of distribution at steady state in rat at 2 to 10 mg/kg, iv; assay type: ADME, organism-based; design: dose 2-10 mg/kg, route intravenous; conditions: in vivo, read-out: Vdss
[3] = tested on: Rattus norvegicus; experiment: Antiinflammatory activity in po dosed CD rat whole blood assessed as inhibition of LPS-induced TNFalpha production administered 1 hr before LPS challenge measured by […]; assay type: functional, organism-based
[4] = Clearance in rat at 10 mg/kg, iv infusion; assay type: ADME, organism-based; design: dose 10 mg/kg, route intravenous; conditions: in vivo
[5] = Thermodynamic solubility of the compound at pH 5; assay type: physicochemical; conditions: buffer, read-out: Therm_solubility
[6] = Metabolic stability of the compound in human liver microsomes assessed as compound remaining at 3 uM after 30 mins; assay type: ADME, Microsome; conditions: read-out: Stability
[7] = tested on: Hepatocyte; experiment: Drug metabolism in rat hepatocytes after 60 mins; assay type: ADME, cell-based; conditions: 1 h
[8] = target: Mitogen-activated protein kinase 8 (Homo sapiens, UniProt P45983); experiment: Inhibition of full length Hexa-His-tagged JNK1 using GST-tagged cJun and [gamma33P]ATP as substrate after 60 mins by scintillation counting
Mitogen-activated protein kinase 8, sequence (P45983 whole entry): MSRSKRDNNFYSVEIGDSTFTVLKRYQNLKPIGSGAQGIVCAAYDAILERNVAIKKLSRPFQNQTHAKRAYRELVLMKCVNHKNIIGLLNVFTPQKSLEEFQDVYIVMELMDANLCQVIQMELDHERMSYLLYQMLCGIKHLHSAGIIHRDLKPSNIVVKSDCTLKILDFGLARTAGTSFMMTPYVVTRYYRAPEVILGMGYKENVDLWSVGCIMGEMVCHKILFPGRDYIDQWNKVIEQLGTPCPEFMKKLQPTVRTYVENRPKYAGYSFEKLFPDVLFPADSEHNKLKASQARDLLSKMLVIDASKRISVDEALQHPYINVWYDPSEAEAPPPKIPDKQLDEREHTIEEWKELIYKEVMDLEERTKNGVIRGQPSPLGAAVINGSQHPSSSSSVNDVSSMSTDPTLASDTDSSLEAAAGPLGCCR

[9] = tested on: Plasma; experiment: Drug metabolism in rat plasma at 2 mg/kg after 60 mins; assay type: ADME, organism-based; design: dose 2 mg/kg; conditions: in vivo, 1 h
[10] = Metabolic stability of the compound in mouse liver microsomes assessed as compound remaining at 3 uM after 30 mins; assay type: ADME, Microsome; conditions: read-out: Stability
[11] = AUC in rat at 10 mg/kg, iv infusion; assay type: ADME, organism-based; design: dose 10 mg/kg, route intravenous; conditions: plasma
[12] = AUC in rat at 2 to 10 mg/kg, iv bolus; assay type: ADME, organism-based; design: dose 2-10 mg/kg, route intravenous; conditions: plasma
[13] = Clearance in cynomolgus monkey at 1 mg/kg, iv bolus; assay type: ADME, organism-based, Macaca fascicularis; design: dose 1 mg/kg, route intravenous; conditions: in vivo
[14] = target: Cytochrome P450 2C19 (Homo sapiens, UniProt P33261); experiment: Inhibition of recombinant CYP2C19 up to 30 uM; assay type: ADME; conditions: recombinant enzyme
Cytochrome P450 2C19, sequence (P33261 whole entry): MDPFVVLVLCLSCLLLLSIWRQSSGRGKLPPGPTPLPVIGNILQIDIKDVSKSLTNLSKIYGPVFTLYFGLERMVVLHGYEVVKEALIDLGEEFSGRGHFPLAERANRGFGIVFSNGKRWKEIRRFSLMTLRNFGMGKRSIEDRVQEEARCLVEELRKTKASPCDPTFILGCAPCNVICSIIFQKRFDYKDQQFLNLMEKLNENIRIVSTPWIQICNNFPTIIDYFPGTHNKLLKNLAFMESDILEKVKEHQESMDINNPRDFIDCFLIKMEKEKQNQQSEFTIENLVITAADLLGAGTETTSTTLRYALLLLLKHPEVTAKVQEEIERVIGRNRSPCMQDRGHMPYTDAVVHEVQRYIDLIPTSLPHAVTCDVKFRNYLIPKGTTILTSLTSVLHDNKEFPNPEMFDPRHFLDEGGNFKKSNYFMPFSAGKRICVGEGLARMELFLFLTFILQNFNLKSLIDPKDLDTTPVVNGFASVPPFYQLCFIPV

[15] = Clearance in dog at 1 mg/kg, iv bolus; assay type: ADME, organism-based, Canis lupus familiaris; design: dose 1 mg/kg, route intravenous; conditions: in vivo
[16] = tested on: Hepatocyte; experiment: Drug metabolism in human hepatocytes after 60 mins; assay type: ADME, cell-based; conditions: 1 h
[17] = Metabolic stability of the compound in monkey liver microsomes assessed as compound remaining at 3 uM after 30 mins; assay type: ADME, Macaca mulatta, Microsome; conditions: rhesus monkey, read-out: Stability
[18] = target: Cytochrome P450 3A4 (Homo sapiens, UniProt P08684); experiment: Inhibition of recombinant CYP3A4 up to 30 uM; assay type: ADME; conditions: recombinant enzyme
Cytochrome P450 3A4, sequence (P08684 whole entry): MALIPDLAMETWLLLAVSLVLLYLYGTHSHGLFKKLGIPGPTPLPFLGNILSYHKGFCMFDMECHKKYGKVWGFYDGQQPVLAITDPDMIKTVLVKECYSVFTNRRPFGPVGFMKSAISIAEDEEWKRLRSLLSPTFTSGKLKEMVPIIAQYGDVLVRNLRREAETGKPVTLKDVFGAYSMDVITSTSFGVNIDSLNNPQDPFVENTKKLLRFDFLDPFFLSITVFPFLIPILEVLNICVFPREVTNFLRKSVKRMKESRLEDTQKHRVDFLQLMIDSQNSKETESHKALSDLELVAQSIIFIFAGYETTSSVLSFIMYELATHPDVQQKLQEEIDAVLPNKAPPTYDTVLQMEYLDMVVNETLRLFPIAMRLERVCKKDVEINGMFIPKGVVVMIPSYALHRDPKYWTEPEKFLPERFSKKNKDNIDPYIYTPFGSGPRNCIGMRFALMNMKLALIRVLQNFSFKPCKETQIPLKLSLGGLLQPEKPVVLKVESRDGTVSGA

N[C@H]1CC[C@H](Nc2ncc3nc(Nc4ccc(F)cc4F)n(C4CCCC4)c3n2)CC1
Activity [1]: Non-toxic | Vd [2]: 75 L/kg | pIC50 [3]: 5.82 | clearance [4]: 83 mL/min/kg | solubility thermodynamic [5]: 792 µg/mL (≈ 1850 µM) | remaining at 0.5 h, 3 µM [6]: 100% | Drug metabolism [7]: Not Active | pIC50 [8]: 6.57 | Drug metabolism [9]: Not Active | remaining at 0.5 h, 3 µM [10]: 100% | AUC [11]: 3.8 µM·h | AUC [12]: 4.7 µM·h | clearance [13]: 5 mL/min/kg | inhibition (INH) [14]: Not Active | clearance [15]: 28 mL/min/kg | Drug metabolism [16]: Not Active | remaining at 0.5 h, 3 µM [17]: 100% | inhibition (INH) [18]: Not Active
